From ChEMBL document CHEMBL1201862, “PubChem BioAssay data set” (2004)
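All cell lines were grown in 96-well plates and treated with compound for 48 hours. The concentration for 50% growth inhibition is given as GI50.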 Activity calls are given as the source filed them. Cut-off read from the data, not from the text of the source: active = GI50 up to about 1.1 µM and inactive = higher.

How the values were obtained:
Assay in all cases: DTP human tumour cell line panel, 48 h
BT-549 = test system: BT-549
SF-295 = test system: SF-295
NCI-H226 = test system: NCI-H226
NCI-H460 = test system: NCI-H460
Malme-3M = test system: Malme-3M
NCI-H522 = test system: NCI-H522
K562 = test system: K562
HT-29 = test system: HT-29
SR = test system: SR
HCT-15 = test system: HCT-15
OVCAR-4 = test system: OVCAR-4
SK-OV-3 = test system: SK-OV-3
KM12 = test system: KM12
U-251 = test system: U-251
786-0 = test system: 786-0
Hs-578T = test system: Hs-578T
SW-620 = test system: SW-620
MDA-N = test system: MDA-N
CCRF-CEM = test system: CCRF-CEM
HL-60 = test system: HL-60

| Compound | GI50 (BT-549) | GI50 (SF-295) | GI50 (NCI-H226) | GI50 (NCI-H460) | GI50 (Malme-3M) | GI50 (NCI-H522) | GI50 (K562) | GI50 (HT-29) | GI50 (SR) | GI50 (HCT-15) | GI50 (OVCAR-4) | GI50 (SK-OV-3) | GI50 (KM12) | GI50 (U-251) | GI50 (786-0) | GI50 (Hs-578T) | GI50 (SW-620) | GI50 (MDA-N) | GI50 (CCRF-CEM) | GI50 (HL-60) |
| --- | --- | --- | --- | --- | --- | --- | --- | --- | --- | --- | --- | --- | --- | --- | --- | --- | --- | --- | --- | --- |
| CCC(C)C(NC(=O)C(CCCC[N+](=N)N)NC(=O)C(CCCC[N+](=N)N)NC(=O)c1ccc(OC)cc1)C(=O)NC(CCCC[N+](=N)N)C(=O)N1CCCC1C(=O)NC(CCCCN)C(=O)NC(CC(C)C)C(N)=O (stereo unspecified) | > 100 µM (inactive) | > 100 µM (inactive) | > 100 µM (inactive) | > 100 µM (inactive) | > 100 µM (inactive) | > 100 µM (inactive) | > 100 µM (inactive) | > 100 µM (inactive) | > 100 µM (inactive) | > 100 µM | > 100 µM (inactive) | > 100 µM (inactive) | > 100 µM (inactive) | > 100 µM (inactive) | > 100 µM (inactive) | > 100 µM (inactive) | > 100 µM (inactive) | > 100 µM (inactive) | > 100 µM (inactive) | – |
| CCOC(=O)/C=C(\C(=O)OCC)n1cc(C)c(=O)n(Cc2cn(COCCOC(C)=O)nn2)c1=O | 10.6 µM (inactive) | 19.5 µM (inactive) | > 10 µM (inactive) | 10.2 µM (inactive) | – | – | 5.69 µM (inactive) | 7.33 µM (inactive) | 1.44 µM (inactive) | 6.93 µM | 23.3 µM (inactive) | 71.8 µM (inactive) | 16.2 µM (inactive) | 16.8 µM (inactive) | 5.46 µM (inactive) | 17.1 µM (inactive) | 2.94 µM (inactive) | 20.2 µM (inactive) | 1.85 µM (inactive) | – |
| CC(C)/C(Cl)=N\OC(=O)Nc1ccc(F)cc1 | 11.2 µM (inactive) | 14.4 µM (inactive) | 18.2 µM (inactive) | 18.1 µM (inactive) | 1.95 µM (inactive) | 1.52 µM (inactive) | 1.5 µM (inactive) | 2.04 µM (inactive) | 1.68 µM (inactive) | 3.48 µM | – | 17.8 µM (inactive) | 16.6 µM (inactive) | 15.6 µM (inactive) | 5.18 µM (inactive) | 24.7 µM (inactive) | 1.69 µM (inactive) | 8.26 µM (inactive) | 0.916 µM (active) | 1.55 µM (inactive) |
| COc1cc(C(=O)CBr)c(OC)cc1C | 36.2 µM (inactive) | > 100 µM (inactive) | 75.5 µM (inactive) | – | > 100 µM (inactive) | > 100 µM (inactive) | > 100 µM (inactive) | > 100 µM (inactive) | > 100 µM (inactive) | > 100 µM | – | > 100 µM (inactive) | > 100 µM (inactive) | > 100 µM (inactive) | > 100 µM (inactive) | 72.4 µM (inactive) | > 100 µM (inactive) | > 100 µM (inactive) | > 100 µM (inactive) | > 100 µM (inactive) |
| C=C(CO)C(=O)OC1CC(=C)C2CC(O)C(C)C2C2OC(=O)C(=C)C12 (stereo unspecified) | 14.9 µM (inactive) | 19.4 µM (inactive) | – | 35.8 µM (inactive) | 21.3 µM (inactive) | 26.3 µM (inactive) | 31.3 µM (inactive) | 24.7 µM (inactive) | 19.3 µM (inactive) | 19.1 µM | 61.1 µM (inactive) | 30.4 µM (inactive) | 18 µM (inactive) | 26.7 µM (inactive) | 37.3 µM (inactive) | 18.4 µM (inactive) | 22.9 µM (inactive) | 19.3 µM (inactive) | 31.2 µM (inactive) | 25.8 µM (inactive) |
| N#CCCSC(=S)C1CCCC1=N (stereo unspecified) | > 100 µM (inactive) | > 100 µM (inactive) | > 100 µM (inactive) | > 100 µM (inactive) | > 100 µM (inactive) | > 100 µM (inactive) | > 100 µM (inactive) | > 100 µM (inactive) | – | > 100 µM | > 100 µM (inactive) | > 100 µM (inactive) | > 100 µM (inactive) | > 100 µM (inactive) | > 100 µM (inactive) | > 100 µM (inactive) | > 100 µM (inactive) | > 100 µM (inactive) | – | > 100 µM (inactive) |
| CCOC(=O)C(C(=O)OCC)C(=S)NC1OC(COC(C)=O)C(OC(C)=O)C(OC(C)=O)C1OC(C)=O (stereo unspecified) | > 100 µM (inactive) | > 100 µM (inactive) | > 100 µM (inactive) | > 100 µM (inactive) | > 100 µM (inactive) | > 100 µM (inactive) | – | > 100 µM (inactive) | > 100 µM (inactive) | > 100 µM | > 100 µM (inactive) | > 100 µM (inactive) | > 100 µM (inactive) | > 100 µM (inactive) | > 100 µM (inactive) | > 100 µM (inactive) | > 100 µM (inactive) | > 100 µM (inactive) | > 100 µM (inactive) | > 100 µM (inactive) |
| CC(C)Nc1n[nH]c(=O)n1C(C)C | > 100 µM (inactive) | > 100 µM (inactive) | 81.5 µM (inactive) | > 100 µM (inactive) | – | – | > 100 µM (inactive) | > 100 µM (inactive) | > 100 µM (inactive) | > 100 µM | – | > 100 µM (inactive) | > 100 µM (inactive) | > 100 µM (inactive) | > 100 µM (inactive) | 49.9 µM (inactive) | > 100 µM (inactive) | > 100 µM (inactive) | > 100 µM (inactive) | > 100 µM (inactive) |
| NC(=O)CSc1nc2ccccc2c(=O)n1N | > 100 µM (inactive) | > 100 µM (inactive) | > 100 µM (inactive) | > 100 µM (inactive) | > 100 µM (inactive) | > 100 µM (inactive) | > 100 µM (inactive) | > 100 µM (inactive) | > 100 µM (inactive) | > 100 µM | > 100 µM (inactive) | – | > 100 µM (inactive) | > 100 µM (inactive) | > 100 µM (inactive) | > 100 µM (inactive) | > 100 µM (inactive) | > 100 µM (inactive) | – | – |
| OCC1OC(N2CCN(C3OC(CO)C(O)C(O)C3O)CC2)C(O)C(O)C1O (stereo unspecified) | > 100 µM (inactive) | > 100 µM (inactive) | > 100 µM (inactive) | > 100 µM (inactive) | > 100 µM (inactive) | > 100 µM (inactive) | > 100 µM (inactive) | > 100 µM (inactive) | > 100 µM (inactive) | > 100 µM | > 100 µM (inactive) | > 100 µM (inactive) | > 100 µM (inactive) | > 100 µM (inactive) | > 100 µM (inactive) | > 100 µM (inactive) | > 100 µM (inactive) | > 100 µM (inactive) | – | – |
| C[N+]1(CCN[N+]2(C)CCCCC2)CCc2ccccc2C1 (stereo unspecified) | > 100 µM (inactive) | > 100 µM (inactive) | 60.4 µM (inactive) | > 100 µM (inactive) | > 100 µM (inactive) | > 100 µM (inactive) | > 100 µM (inactive) | > 100 µM (inactive) | > 100 µM (inactive) | > 100 µM | > 100 µM (inactive) | > 100 µM (inactive) | > 100 µM (inactive) | > 100 µM (inactive) | > 100 µM (inactive) | > 100 µM (inactive) | > 100 µM (inactive) | > 100 µM (inactive) | > 100 µM (inactive) | – |
| CC1CNC(c2ccc3c(c2)Cc2cc(C4=NC(C)CN4)ccc2-3)=N1 (stereo unspecified) | > 100 µM (inactive) | 71.9 µM (inactive) | 55.7 µM (inactive) | 26.6 µM (inactive) | 19.2 µM (inactive) | 22.2 µM (inactive) | 34.4 µM (inactive) | 61.2 µM (inactive) | 42.9 µM (inactive) | > 100 µM | 19.1 µM (inactive) | 37.9 µM (inactive) | 20.3 µM (inactive) | 19.4 µM (inactive) | 54.3 µM (inactive) | 38.1 µM (inactive) | 56.1 µM (inactive) | 34.8 µM (inactive) | > 100 µM (inactive) | – |
| CC(C)(C)CC(N)=O | > 100 µM (inactive) | > 100 µM (inactive) | > 100 µM (inactive) | > 100 µM (inactive) | – | > 100 µM (inactive) | > 100 µM (inactive) | > 100 µM (inactive) | > 100 µM (inactive) | > 100 µM | > 100 µM (inactive) | > 100 µM (inactive) | > 100 µM (inactive) | > 100 µM (inactive) | > 100 µM (inactive) | > 100 µM (inactive) | > 100 µM (inactive) | > 100 µM (inactive) | > 100 µM (inactive) | > 100 µM (inactive) |
| CC1=CN(c2ccccc2)S2=C1c1sc3c(c1N2c1ccc(Br)cc1)CCCC3 (stereo unspecified) | > 100 µM (inactive) | > 100 µM (inactive) | > 100 µM (inactive) | > 100 µM (inactive) | – | > 100 µM (inactive) | > 100 µM (inactive) | > 100 µM (inactive) | > 100 µM (inactive) | > 100 µM | > 100 µM (inactive) | > 100 µM (inactive) | > 100 µM (inactive) | > 100 µM (inactive) | > 100 µM (inactive) | > 100 µM (inactive) | > 100 µM (inactive) | > 100 µM (inactive) | > 100 µM (inactive) | > 100 µM (inactive) |
| COc1cc([C@@H]2c3cc4c(cc3C[C@H]3COC(=O)[C@@H]32)OCO4)cc(OC)c1OC [DESOXYPODOPHYLLOTOXIN] | < 0.01 µM (active) | 0.00632 µM (active) | 0.00733 µM (active) | – | 0.0149 µM (active) | – | 0.0074 µM (active) | – | 0.00376 µM (active) | – | – | 0.0803 µM (active) | – | 0.00634 µM (active) | 0.00372 µM (active) | 0.00204 µM (active) | 0.0091 µM (active) | 0.00222 µM (active) | 0.00865 µM (active) | 0.00713 µM (active) |
